Results as given in ChEMBL document CHEMBL1201862, “PubChem BioAssay data set” (2004).
Active and inactive are the calls of the source.

Experiments:
[1] = target: Trypsin (Sus scrofa, UniProt P00761); assay: porcine trypsin inhibitors, dose response, selectivity assay for Rce1 protease inhibitor project, biochemical, quenched peptide fluorescence, cherry-pick (AID 488789)
[2] = target: CAAX prenyl protease 2 (Saccharomyces cerevisiae S288c, UniProt Q03530); type: biochemical
[3] = target: Mu-type opioid receptor (Homo sapiens, UniProt P35372); assay: SAR Analysis of Antagonists of the MOR Receptor using an Image-Based Assay - Set 3. [Related pubchem assays (depositor defined):AID1777, AID1785, AID1786, AID1966, AID2133, AID2136, AID2284, AID2285, AID2420]; type: functional
Sequence of Mu-type opioid receptor (P35372 whole entry): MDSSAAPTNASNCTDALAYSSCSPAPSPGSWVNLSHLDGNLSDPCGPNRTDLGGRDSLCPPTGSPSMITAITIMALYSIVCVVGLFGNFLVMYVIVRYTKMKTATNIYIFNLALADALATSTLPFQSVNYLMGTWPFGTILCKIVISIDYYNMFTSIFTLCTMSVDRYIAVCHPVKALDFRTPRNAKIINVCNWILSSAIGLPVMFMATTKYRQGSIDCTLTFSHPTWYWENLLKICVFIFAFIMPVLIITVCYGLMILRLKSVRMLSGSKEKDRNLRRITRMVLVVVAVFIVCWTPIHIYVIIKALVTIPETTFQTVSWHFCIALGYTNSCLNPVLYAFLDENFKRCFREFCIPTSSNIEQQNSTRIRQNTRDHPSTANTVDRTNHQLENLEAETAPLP

[4] = target: T1, Kappa-type opioid receptor (Homo sapiens, UniProt P41145); assay: SAR analysis of small molecule antagonists of the kappa opioid receptor via a luminescent beta-arrestin assay - Set 4. [Related pubchem assays (depositor defined):AID1777, AID1778, AID1785, AID1786, AID1966, AID2133, AID2136, AID2285]; type: functional
T1 sequence (P41145 whole entry): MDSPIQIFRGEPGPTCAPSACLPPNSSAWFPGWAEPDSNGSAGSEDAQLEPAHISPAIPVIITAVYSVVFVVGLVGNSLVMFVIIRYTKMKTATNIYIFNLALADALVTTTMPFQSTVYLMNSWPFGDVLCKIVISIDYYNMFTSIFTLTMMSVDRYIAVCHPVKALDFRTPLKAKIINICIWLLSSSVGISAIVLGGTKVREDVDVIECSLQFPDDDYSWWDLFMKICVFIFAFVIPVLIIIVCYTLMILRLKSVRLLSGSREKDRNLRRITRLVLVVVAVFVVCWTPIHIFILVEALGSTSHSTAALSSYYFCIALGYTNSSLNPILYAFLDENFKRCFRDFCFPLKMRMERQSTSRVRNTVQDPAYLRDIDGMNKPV

[5] = target: T1, Kappa-type opioid receptor; assay: SAR analysis of Antagonists of the Kappa Opioid Receptor (KOR) using an Image-Based Assay - Set 4. [Related pubchem assays (depositor defined):AID1777, AID1785]; type: functional
[6] = target: Delta-type opioid receptor (Homo sapiens, UniProt P41143); assay: SAR Analysis of Antagonists of the DOR Receptor using an Image-Based Assay - Set 3. [Related pubchem assays (depositor defined):AID1777, AID1785]; type: functional;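 further: U2OS cells expressing DOR1 and beta-arrestin GFP stimulated with 100 nM SNC80; imaging of GFP-tagged beta-arrestin moving into spots after receptor activation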
Sequence of Delta-type opioid receptor (P41143 whole entry): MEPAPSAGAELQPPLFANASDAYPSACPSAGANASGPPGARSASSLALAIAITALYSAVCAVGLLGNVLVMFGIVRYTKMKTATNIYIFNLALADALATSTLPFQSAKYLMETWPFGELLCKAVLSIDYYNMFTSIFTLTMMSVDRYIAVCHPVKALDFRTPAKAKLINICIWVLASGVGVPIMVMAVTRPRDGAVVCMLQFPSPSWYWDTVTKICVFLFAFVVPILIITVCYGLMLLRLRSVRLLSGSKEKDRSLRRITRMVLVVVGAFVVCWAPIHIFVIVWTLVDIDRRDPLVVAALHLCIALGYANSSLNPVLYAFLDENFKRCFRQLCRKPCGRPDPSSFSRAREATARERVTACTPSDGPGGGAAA

[7] = target: T1, Kappa-type opioid receptor; assay: SAR analysis of small molecule antagonists of the kappa opioid receptor via a luminescent beta-arrestin assay - Set 6. [Related pubchem assays (depositor defined):AID1777, AID1778, AID1785, AID1786, AID1966, AID2133, AID2136, AID2285]; type: functional

Sequence of CAAX prenyl protease 2 (Q03530 whole entry): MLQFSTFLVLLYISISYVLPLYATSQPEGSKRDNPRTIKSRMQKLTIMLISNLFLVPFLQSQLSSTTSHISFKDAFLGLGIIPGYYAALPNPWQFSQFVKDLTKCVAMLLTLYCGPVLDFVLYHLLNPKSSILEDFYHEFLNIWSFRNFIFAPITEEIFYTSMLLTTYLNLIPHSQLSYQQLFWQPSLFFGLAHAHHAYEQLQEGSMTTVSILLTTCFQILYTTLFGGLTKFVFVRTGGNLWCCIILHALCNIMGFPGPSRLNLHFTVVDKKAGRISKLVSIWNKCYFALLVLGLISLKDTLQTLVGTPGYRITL
Sequence of Trypsin (P00761 whole entry): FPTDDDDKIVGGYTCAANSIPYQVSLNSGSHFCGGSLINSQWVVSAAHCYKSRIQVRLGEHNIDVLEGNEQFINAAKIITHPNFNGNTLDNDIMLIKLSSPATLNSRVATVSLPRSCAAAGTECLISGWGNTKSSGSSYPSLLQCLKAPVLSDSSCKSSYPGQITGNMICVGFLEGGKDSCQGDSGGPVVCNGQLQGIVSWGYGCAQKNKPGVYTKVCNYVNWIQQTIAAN

Row | AC50 [1] | AC50 [2] | IC50 [3] | IC50 [4] | IC50 [5] | IC50 [6] | IC50 [7] | SMILES
1 | 41.5 µM (active) | 990 nM (active) | – | – | – | – | – | N#Cc1nc(-c2ccco2)oc1N1CCN(C(c2ccccc2)c2ccccc2)CC1
2 | – | – | > 32 µM (inactive) | > 20 µM (inactive) | 5.98 µM (active) | > 32 µM (inactive) | > 20 µM (inactive) | Cc1ccc(S(=O)(=O)NCc2ccc(C(=O)NCCN3CCc4ccccc4C3)cc2)cc1
